In patent publication US20210261857A1, “PARTICLE COMPRISING AT LEAST ONE FERRIMAGNETIC OR FERROMAGNETIC IRON OXIDE NANOPARTICLE ASSOCIATED WITH AT LEAST ONE COMPOUND FOR MEDICAL OR COSMETIC USE” (NANOBACTERIE, priority 2015, published 2021):

Experiments:
Format in all cases: physicochemical
[1] = Luminescence of heated DiI and BNF-DiI suspensions and supernate; details: excited at 530 nm
Method: A suspension of DiI of concentration 5.4 μM and pH 7 is heated at various temperatures lying between 20 and 90° C. for 30 minutes using a dry heating bath. […] When a suspension containing BNF-DiI mixed in water at a concentration of 80 μg/mL in iron oxide is heated at temperatures lying between 20 and 90° C. using a dry heating bath, the behavior is different from that observed with DiI alone.
In order to determine if the luminescence variation of the BNF-DiI is due to the dissociation of DiI from the BNF, the maximum intensity of luminescence of the supernate of BNF-DiI and DiI alone, excited at 530 nm, were measured for suspensions containing BNF-DiI or DiI alone heated at different temperatures between 20 and 90° C. for a period of 0 to 30 minutes.

[2] = Luminescence of heated rhodamine B solution and MCR400 suspension (temperature probe); details: temperature increased from 20° C. to 80° C., 5 μM, pH 7, heated 30 minutes, excited at 405 nm
Method: A solution of rhodamine B of concentration 5 μM and pH 7 contained in a volume of 800 μL is excited at 405 nm and heated at different temperatures for 30 minutes using a dry heating bath. When the temperature of this solution increases from 20° C. to 80° C., the wavelength corresponding to the maximum luminescence of rhodamine B remains relatively unchanged while the maximum luminescence intensity of rhodamine B decreases strongly by 73% in agreement with previously published results (Journal of Luminescence, Vol. 27, p. 455 (1982)). A suspension of MCR400 at a concentration of 250 μg/mL in iron oxide and pH 7 contained in a volume of 800 μl is excited at 405 nm and heated at different temperatures for 30 minutes using a dry hot-water heating bath. MCR400 excited at 405 nm produce maximum luminescence intensity at 569 nm. The behavior of the MCR400 is different from that of rhodamine B. Indeed, between 20° C. and 80° C., the maximum of the luminescence peak is observed at 569 nm and the luminescence intensity of the MCR400 increases sharply by 66%. The luminescence intensity of rhodamine B would initially be quenched when rhodamine B is associated with magnetosomes and would increase with the dissociation of rhodamine B from magnetosomes under the effect of a temperature increase.

[3] = Luminescence after irradiation with a faxitron irradiator (irradiation probe); details: 0 to 1350 Gy, 125 μM rhodamine B, pH 7, 25° C., excited at 550 nm, measured at 578 nm
Method: Three suspensions are maintained at pH 7 and at a temperature of 25° C., containing either 400 μg/mL in iron oxide of MCR400, 125 μM of rhodamine B, or 400 μg/mL in iron oxide of MC mixed with 125 μM of rhodamine B. These suspensions are irradiated with a faxitron irradiator dosimeter (160 kV, 6.3 mA without filter, 67.5 Gy/min). The irradiation doses are between 0 and 1350 Gy. […] In contrast, when the MCR400 suspension is irradiated, the luminescence of the supernate of this suspension, excited at 550 nm and measured at 576 nm, increases sharply from 250 a.u. in the absence of irradiation to 600-950 a.u. in the presence of an irradiation larger than 250 Gy.

[4] = Luminescence as a function of pH (pH 2 to 12), suspension, supernate and rhodamine B alone; details: 125 μM, excited at 550 nm
Method: A suspension of MCR400 at 400 μg/mL in iron oxide and a 125 μM solution of rhodamine B were mixed with solutions of hydrochloric acid or with solutions of sodium hydroxide at concentrations ranging from 0.1 to 12 M to adjust the pH to values between 2 and 12. The samples containing the MCR400 suspensions thus treated are then placed against a magnet of 0.6 T for 12 hours at 4° C. and the supernate of the treated MCR400 suspensions is removed. The maximum luminescence intensity of the supernate of the MCR400 suspension, excited at 550 nm, decreases from 140 a.u. at pH 2 down to 20 a.u. at pH 12. On the other hand, the maximum luminescence intensity of rhodamine B alone, excited at 550 nm, increases from 440 a.u. up to 580 a.u. […] In contrast, for 2<pH<4, the emission wavelengths of rhodamine B alone, MCR400 and the supernate of MCR400, are similar, lying between 580 nm and 584 nm. These behaviors could be explained by the association of rhodamine B with magnetosomes for pH>4 and the dissociation of rhodamine B from magnetosomes for pH<4.

[5] = Fluorescence lifetime by the frequency method; details: excitation 445 nm, MCR400 5 mg/mL in iron oxide, rhodamine B 5 μM
Method: Life time experiments were carried out using the frequency method. The set-up uses a modulated laser diode as excitation source, a confocal fluorescence spectroscope, a control unit for intensifying images and a camera, frequency generators and a spectrograph controller. The modulation frequency has been varied between 30 and 180 MHz. The excitation wavelength is 445 nm. The laser light is modulated by a radio frequency signal. An interference filter suppresses parasitic fluorescence from the laser diode and a high pass filter is placed in the detection path to decrease scattering. A volume of 1 mL of a suspension of MCR400 at 5 mg/mL in iron oxide and rhodamine B at a concentration of 5 μM was placed in a dry heating bath for 5 minutes to heat the suspensions at 25° C. and at 45° C. 10 μl of a suspension of MCR400 at 5 mg/ml in iron oxide and rhodamine B at a concentration of 5 μM were deposited on a slide and then placed in front of an objective ×40 to measure the fluorescence lifetime of each suspension.

Structure (SMILES)	maximum luminescence intensity as a function of heating temperature ([1]; heated 30 minutes, DiI 5.4 μM pH 7, BNF-DiI 80 μg/mL in iron oxide)	luminescence intensity of the substance alone on heating ([1]; heated between 20 and 90° C. for 0 to 30 minutes)	decrease of maximum luminescence intensity [2] [%]	luminescence on irradiation (solution, or supernate of the mixture) [3]	maximum luminescence intensity of the solution ([4]; end of the pH increase (pH range 2 to 12)) [a.u.]	maximum luminescence intensity of the solution ([4]; start of the pH increase (pH range 2 to 12)) [a.u.]	fluorescence lifetime ([5]; 25° C.) [ns]	fluorescence lifetime ([5]; 45° C.) [ns]
CCCCCCCCCCCCCCCCCCN1C(=CC=CC2=[N+](CCCCCCCCCCCCCCCCCC)c3ccccc3C2(C)C)C(C)(C)c2ccccc21.[O-][Cl+3]([O-])([O-])[O-] [DiI, 1,1′-Dioctadecyl-3,3,3′,3′-tetramethyl-indocarbocyanine perchlorate]	increases between 20 and 60 °C and then decreases between 60 and 100 °C	does not significantly decrease	–	–	–	–	–	–
CCN(CC)c1ccc2c(-c3ccccc3C(=O)O)c3ccc(=[N+](CC)CC)cc-3oc2c1.[Cl-] [rhodamine B]	–	–	73	do not vary or decrease	580	440	1.6	1.3
